The target in the assay is human α7 receptor (Homo sapiens, UniProt P36544). Put plainly: α7 NNR flux assay (FDSS Ca assay). It is filed as cell-based. The note with it: positive allosteric modulation; rat GH4C1 cell line stably expressing human α7; acetylcholine 20 μM; % modulation relative to PNU-120596 set to 100%. How it is done:
In this version of the assay, the human α7 receptor is stably expressed in the rat GH4C1 cell line. The assay was used to identify positive allosteric modulators (PAMs) of the α7 receptor. Activation of the channel was measured by loading cells with the calcium-sensitive fluorescent dye Calcium-4 (Assay kit from Molecular Devices), and then measuring real-time changes in fluorescence upon treatment with test compounds.
The cell line ChanClone GH4C1-nAChRalpha7 from Genionics was seeded from frozen stock in 384-well plates in culture media 2-3 days before experiment to form an approximately 80% confluent layer on the day of experiment.
The cell culture were split into “22.5 cm×22.5 cm”-plates with approximately 100×10^3 cells/cm^2. After four days incubation in a humidified incubator at 37° C. and 5% CO2, it had grown to an 80-90% confluent layer, and the cells were harvested.
Two or three days before the experiment the cells were seeded in 384 well plates from Greiner bio-one (781946, CELLCOAT, Poly-D-Lysine, black, μClear).
The cells were seeded in 384 well plates with 30 μL/well (30000 cells/well) while stirring the cell suspension or otherwise preventing the cells from precipitating. The plates were incubated at room temperature for 30-45 minutes. The plates were placed in incubator for two days (37° C. and 5% CO2).
The loading buffer was 5% v/v Calcium-4 Kit and 2.5 mM Probenecid in assay buffer.
Culture media were removed from the cell plates and 20 μL loading buffer was added in each well. The cell plates were placed in trays and incubated 90 minutes in the incubator (37° C.). Thereafter the plates were incubated 30 minutes at room temperature, still protected from light. Now the cell plates were ready to run in the Functional Drug Screening System (FDSS) The assay buffer was HBSS with 20 mM HEPES, pH 7.4 and 3 mM CaCl2.
200 nL 10 mM compound solution in DMSO was diluted in 50 μL assay buffer. The final test concentrations in the cell plates were 20-10-5-2.5-1.25-0.625-0.312-0.156-0.078-0.039 μM. Assay buffer and 3 μM PNU-120596 were used for control:
The agonist acetylcholine was added to a final concentration of 20 μM (˜EC100). In the FDSS7000 the Ex480-Em540 was measured with 1 second intervals. The baseline was made of 5 frames before addition of test compounds, and 95 frames more were made before addition of acetylcholine. The measurement stopped 30 frames after the 2nd addition. Raw data for each well were collected as “the maximum fluorescence count” in the interval 100-131 seconds and as “the average fluorescence count” in the interval 96-100 seconds. The positive allosteric modulation in the 2nd addition was the enhancement of agonist response with test compound compared to agonist alone.
Results were calculated as % modulation of test compound compared to the reference PNU-120596 set to 100%.

Sequence of human α7 receptor (P36544 23-502): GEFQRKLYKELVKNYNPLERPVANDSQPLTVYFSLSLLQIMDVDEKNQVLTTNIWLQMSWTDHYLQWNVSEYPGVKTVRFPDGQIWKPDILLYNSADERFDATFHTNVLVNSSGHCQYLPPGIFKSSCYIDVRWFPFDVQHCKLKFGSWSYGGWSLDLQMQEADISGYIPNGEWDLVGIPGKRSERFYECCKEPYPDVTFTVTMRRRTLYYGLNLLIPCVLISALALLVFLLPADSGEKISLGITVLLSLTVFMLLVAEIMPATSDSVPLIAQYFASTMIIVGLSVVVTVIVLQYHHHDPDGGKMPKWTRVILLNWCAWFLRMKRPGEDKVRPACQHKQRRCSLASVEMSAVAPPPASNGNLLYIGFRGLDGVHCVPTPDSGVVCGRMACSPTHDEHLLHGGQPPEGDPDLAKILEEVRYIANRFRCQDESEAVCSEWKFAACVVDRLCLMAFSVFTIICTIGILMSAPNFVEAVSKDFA

A word on the EC50: it is the concentration at which the effect is half-maximal. Compound `Cc1cc2cc(CNC(=O)c3cc(CC(F)(F)F)no3)ccc2n1C(F)(F)F` [Compound 85, N-[[2-methyl-1-(trifluoromethyl)indol-5-yl]methyl]-3-(2,2,2-trifluoroethyl)isoxazole-5-carboxamide] displayed an EC50 of 7.7 µM.
For the compound `Cc1cc2cc(CNC(=O)c3cc(C(C)(C)C)on3)ccc2[nH]1` [Compound 87, 5-tert-butyl-N-[(2-methyl-1H-indol-5-yl)methyl]isoxazole-3-carboxamide], the midpoint of the response, the EC50, lay at 2.6 µM.
Take `Cn1c(C(F)(F)F)cc2cc(CNC(=O)c3cnn(CC(F)(F)F)c3)ccc21` [Compound 88, N-[[1-methyl-2-(trifluoromethyl)indol-5-yl]methyl]-1-(2,2,2-trifluoroethyl)pyrazole-4-carboxamide]: the response was half-maximal at 6.2 µM (EC50).
With `Cc1cc(C(=O)NCc2ccc3c(c2)cc(C(F)(F)F)n3C)on1` [Compound 89, 3-methyl-N-[[1-methyl-2-(trifluoromethyl)indol-5-yl]methyl]isoxazole-5-carboxamide], a half-maximal response (EC50) required 5.6 µM.
`Cn1c(C(F)(F)F)cc2cc(CNC(=O)c3cc(CC(F)(F)F)no3)ccc21` [Compound 90, N-[[1-methyl-2-(trifluoromethyl)indol-5-yl]methyl]-3-(2,2,2-trifluoroethyl)isoxazole-5-carboxamide]: the concentration giving a half-maximal response (EC50) is 5 µM.
As for `O=C(NCc1ccc2[nH]c(C(F)F)cc2c1)c1cnn(CC(F)(F)F)c1` [Compound 91, N-[[2-(difluoromethyl)-1H-indol-5-yl]methyl]-1-(2,2,2-trifluoroethyl)pyrazole-4-carboxamide], it took 1.7 µM to reach a half-maximal effect (EC50).
For `Cc1cc(C(=O)NCc2ccc3[nH]c(C(F)F)cc3c2)on1` [Compound 92, N-[[2-(difluoromethyl)-1H-indol-5-yl]methyl]-3-methyl-isoxazole-5-carboxamide] the value was 8.3 µM; for `O=C(NCc1ccc2[nH]c(C(F)F)cc2c1)c1cc(CC(F)(F)F)no1` [Compound 93, N-[[2-(difluoromethyl)-1H-indol-5-yl]methyl]-3-(2,2,2-trifluoroethyl)isoxazole-5-carboxamide], 5.4 µM; for `Cc1cc2cc(CNC(=O)c3ccn(CCF)n3)ccc2[nH]1` [Compound 94, 1-(2-fluoroethyl)-N-[(2-methyl-1H-indol-5-yl)methyl]pyrazole-3-carboxamide], 9.5 µM.
Next, `COCCn1ccc(C(=O)NCc2ccc3[nH]c(C)cc3c2)n1` [Compound 95, 1-(2-methoxyethyl)-N-[(2-methyl-1H-indol-5-yl)methyl]pyrazole-3-carboxamide]: 7.7 µM.
Turning to `COCc1cc(C(=O)NCc2ccc3[nH]c(C)cc3c2)on1` [Compound 98, 3-(methoxymethyl)-N-[(2-methyl-1H-indol-5-yl)methyl]isoxazole-5-carboxamide], the response was half-maximal at 3.5 µM (EC50).
For `Cc1cc2cc(CNC(=O)c3cnn(CCF)c3)ccc2[nH]1` [Compound 99, 1-(2-fluoroethyl)-N-[(2-methyl-1H-indol-5-yl)methyl]pyrazole-4-carboxamide] the value was 6.4 µM; for `COCCn1cc(C(=O)NCc2ccc3[nH]c(C)cc3c2)cn1` [Compound 100, 1-(2-methoxyethyl)-N-[(2-methyl-1H-indol-5-yl)methyl]pyrazole-4-carboxamide], 8.5 µM.
The compound `Cc1[nH]c2ccc(CNC(=O)c3cnn(CC(F)(F)F)c3)cc2c1C` [Compound 101, N-[(2,3-dimethyl-1H-indol-5-yl)methyl]-1-(2,2,2-trifluoroethyl)pyrazole-4-carboxamide] yielded an EC50 of 2.9 µM.
For `Cc1cc(C(=O)N[C@H](C)c2cc3cc(C)[nH]c3cc2F)on1` [Compound 102, N-[(1R)-1-(6-fluoro-2-methyl-1H-indol-5-yl)ethyl]-3-methyl-isoxazole-5-carboxamide] the value was 1 µM; for `Cc1cc(C(=O)N[C@H](C)c2cc3cc[nH]c3c(C)c2F)on1` [Compound 103], 0.33 µM.
Next, `Cc1cc(C(=O)NCc2cc3cc(C)[nH]c3cc2F)on1` [Compound 104, N-[(6-fluoro-2-methyl-1H-indol-5-yl)methyl]-3-methyl-isoxazole-5-carboxamide]: 4.2 µM; `Cc1cc(C(=O)NCc2cc3cc[nH]c3c(C)c2F)on1` [Compound 105, N-[(6-fluoro-7-methyl-1H-indol-5-yl)methyl]-3-methyl-isoxazole-5-carboxamide]: 2.9 µM.
Next, `Cc1cc2cc(CNC(=O)c3cc(CCF)no3)ccc2[nH]1` [Compound 106, 3-(2-fluoroethyl)-N-[(2-methyl-1H-indol-5-yl)methyl]isoxazole-5-carboxamide]: 1.7 µM.
`Cc1cc(C(=O)NCc2ccc3[nH]c(C)cc3c2)sn1` [Compound 107, 3-methyl-N-[(2-methyl-1H-indol-5-yl)methyl]isothiazole-5-carboxamide] returned an EC50 of 0.56 µM.
Regarding `Cc1cc(C(=O)NCc2ccc3[nH]c(CC(F)(F)F)cc3c2)on1` [Compound 108, 3-methyl-N-[[2-(2,2,2-trifluoroethyl)-1H-indol-5-yl]methyl]isoxazole-5-carboxamide], the EC50 was found to be 7.7 µM.
Regarding `Cc1cc(C(=O)NCc2cc(F)c3[nH]c(C)cc3c2)on1` [Compound 109, N-[(7-fluoro-2-methyl-1H-indol-5-yl)methyl]-3-methyl-isoxazole-5-carboxamide], the EC50 was 3.1 µM.
For `Cc1cc(C(=O)NCc2ccc3[nH]c(C)cc3c2F)on1` [Compound 110, N-[(4-fluoro-2-methyl-1H-indol-5-yl)methyl]-3-methyl-isoxazole-5-carboxamide] the value was 6.5 µM; for `Cc1cc(C(=O)N[C@H](C)c2cc(F)c3[nH]c(C)cc3c2)on1` [Compound 111, N-[(1R)-1-(7-fluoro-2-methyl-1H-indol-5-yl)ethyl]-3-methyl-isoxazole-5-carboxamide], 1.3 µM; for `COCc1cc(C(=O)N[C@H](C)c2ccc3[nH]c(C)cc3c2)on1` [Compound 112, 3-(methoxymethyl)-N-[(1R)-1-(2-methyl-1H-indol-5-yl)ethyl]isoxazole-5-carboxamide], 1.1 µM.
Next, `Cc1cc2cc([C@@H](C)NC(=O)c3cc(CCF)no3)ccc2[nH]1` [Compound 113, 3-(2-fluoroethyl)-N-[(1R)-1-(2-methyl-1H-indol-5-yl)ethyl]isoxazole-5-carboxamide]: 0.79 µM.
For `COCc1cc(C(=O)NCc2ccc3[nH]c(C(F)(F)F)cc3c2)on1` [Compound 114, 3-(methoxymethyl)-N-[[2-(trifluoromethyl)-1H-indol-5-yl]methyl]isoxazole-5-carboxamide] the value was 5 µM; for `O=C(NCc1ccc2[nH]ccc2c1)c1cc(CCF)no1` [Compound 115, 3-(2-fluoroethyl)-N-(1H-indol-5-ylmethyl)isoxazole-5-carboxamide], 4.3 µM.
For `Cc1cc2cc(CNC(=O)c3ncc(C)o3)ccc2[nH]1` [Compound 116, 5-methyl-N-[(2-methyl-1H-indol-5-yl)methyl]oxazole-2-carboxamide], the EC50 was 9.9 µM.
Next, `Cc1cc2cc(CNC(=O)c3cnn4c3CCC4)ccc2[nH]1` [Compound 117, N-[(2-methyl-1H-indol-5-yl)methyl]-5,6-dihydro-4H-pyrrolo[1,2-b]pyrazole-3-carboxamide]: 7 µM.
For `Cc1cc2cc(CNC(=O)c3cc4n(n3)CCC4)ccc2[nH]1` [Compound 118, N-[(2-methyl-1H-indol-5-yl)methyl]-5,5-dihydro-4H-pyrrolo[1,2-b]pyrazole-2-carboxamide] the value was 7.2 µM; for `Cc1noc(C(=O)NCc2ccc3[nH]c(C)cc3c2)n1` [Compound 119, 3-methyl-N-[(2-methyl-1H-indol-5-yl)methyl]-1,2,4-oxadiazole-5-carboxamide], 7.1 µM; for `Cc1cc(C(=O)NCc2ccc3[nH]c(C#N)cc3c2)sn1` [Compound 120, N-[(2-cyano-1H-indol-5-yl)-methyl]-3-methyl-isothiazole-5-carboxamide], 3.3 µM.
Next, `Cc1cc(C(=O)N[C@H](C)c2ccc3[nH]c(C#N)cc3c2)on1` [Compound 121, N-[(1R)-1-(2-cyano-1H-indol-5-yl)ethyl]-3-methyl-isoxazole-5-carboxamide]: 4.8 µM.

The values above are taken from US20120252853A1, “Positive allosteric modulators of nicotinic acetylcholine receptor” (H. Lundbeck A/S, priority 2011, published 2012).
